What all share (type): in vivo, Arabidopsis
For assay [1], the system named is NI16 RNA. The assay can be described thus: Induction of NI16 mRNA by SA and BTH spray, RNA blot hybridization. The conditions noted are these: WS-O plants sprayed with 5 mM SA or 300 μm BTH. The protocol:
RNA is prepared from 4 week old Wassilewskija (WS—O) plants, that are either sprayed with water, a 5 mM solution of sodium salicylate (SA), or a 300 μm solution of benzo-(1,2,3)-thiadiazole-7-carbothioic acid S-methyl ester (BTH). […] RNA extractions and RNA blot hybridizations are performed as described previously by Ausubel et al. (1987). NI16 RNA is induced 5–10 fold within 15 minutes of SA or BTH induction and reaches a peak of approximately 50 fold induction within 2 hours of SA treatment and 25 fold induction with BTH treatment.

Assay [2] concerns NI16 promoter fragment 962 bp. The assay can be described thus: GUS florescence assay of promoter::GUS plants after SA application, NI16 962 bp fragment. The conditions noted are these: 5 mM SA spray. The text has this: (§1) A binary promoter::reporter plasmid (pNOV2374) for Arabidopsis transformation was constructed. The regulatory/promoter sequence was fused to the GUS reporter gene (Jefferson et al. (1987) EMBO J 6: 3901-3907) by recombination using […] Technology according to the manufacturer's protocol as described in the Instruction Manual (LifeTechnologies, Rockville, Md.). The construct was then transformed into Agrobacterium tumefaciens strains by electroporation. pNOV2374 is a binary vector with a VS1 origin of replication, a copy of the Agrobacterium virg gene in the backbone, and a Basta® resistance selectable marker cassette between the left and right border sequences of the T-DNA. The Basta® selectable marker cassette comprises the Agrobacterium tumefaciens manopine synthase promoter (AtMas) (Barker et al., Plant Mol. Biol. 2, 335-350 (1983)) operably linked to the gene encoding Basta® resistance (i.e., the “BAR” gene, phosphinothricin acetyl transferase) (White et al., Nucl Acids Res 18: 1062 (1990)) and the 35S terminator. The AtMas promoter, the BAR coding sequence, and the 35S terminator are located at nt 4211 to nt 4679, nt 4680 to nt 5228, and nt 5263 to nt 5488, respectively, of pNOV2374. The vector contains […] recombination components, which were introduced into the binary vector backbone by ligating a blunt-ended cassette containing attR sites, ccdB, and a cholramphenicol resistance marker using the […] Vector Conversion System (LifeTechnologies, Rockville, Md.). The […] cassette was located between nt 126 and 1818 of pNOV2374. The promoter cassettes were inserted through an LR recombination reaction whereby the DNA sequence of pNOV2374 between nt 126 and nt 1818 were removed and replaced with the promoter of interest flanked by att sequences. […] The GIG gene (SEQ ID NO:29) contains the ST-LS1 intron from Solanum tuberosum at nt 385 to nt 576 of GUS (obtained from Dr. Stanton […], Purdue University, and described in Narasimhulu, et al. (1996) Plant Cell 8: 873-886.). […] The treatment was applied as a fine mist to the leaves. […] For quantitative analysis of promoter activity following induction treatments or in various Arabidopsis tissues and organs, GUS expression is measured florometrically. Tissue samples were harvested and ground in ice cold GUS extraction buffer (50 mM Na2HPO4 pH 7.0, 5 mM DTT, 1 mM Na2EDTA, 0.1% TritonX100, 0.1% sarcosyl). Ground samples were spun in a microfuge at 10,000 rpm for 15 minutes at 4° C. Following centrifugation, the supernatant was removed for the GUS assay and for a protein concentration determination. To measure GUS activity, the plant extract was assayed in GUS assay buffer (50 mM Na2HPO4 pH 7.0, 5 mM DTT, 1 mM Na2EDTA, 0.1% TritonX100, 0.1% sarcosyl, 1 mM 4-Methylumbelliferyl-beta-D-glucuronic acid dihydrate (MUG)), pre-warmed to 37° C. Reactions were incubated, and 100 uL aliquots were removed at 10 minute intervals over 30 minutes to stop the reaction by adding the 100 uL aliquots to tubes containing 900 uL of 2% Na2CO3. The stopped reactions were then read on a Tecan Spectroflourometer at 365 nm excitation and 455 emission wavelengths. Protein concentrations were determined using the BCA assay following the manufacturer's protocol. GUS activity is expressed as pmol MU/mg protein/min.

Assay [3] concerns NI16 promoter fragment 274 bp. The assay can be described thus: GUS florescence assay of promoter::GUS plants after SA application, NI16 274 bp fragment. The conditions noted are these: 5 mM SA spray.
Description: as §1

On to `O=C(O)c1ccccc1O` [SA, salicylic acid], for which, in assay [1], the “time NI16 transcript remains highly induced after treatment” value is reported as “up to 24 hours”. Besides, the “NI16 RNA peak induction” value in assay [1] (peak, within 2 hours of SA treatment) was “approximately 50 fold”. Moreover, the “GUS Activity Induced by SA” value stood at 86.8 pmol/mg protein/min in assay [2] (2 h); 260.8 pmol/mg protein/min in assay [2] (4 h); 467.7 pmol/mg protein/min in assay [2] (8 h); 1457.5 pmol/mg protein/min in assay [2] (24 h); 27.5 pmol/mg protein/min in assay [3] (2 h); 58.7 pmol/mg protein/min in assay [3] (4 h). Besides, the “GUS Activity Induced by SA” value in assay [3] (8 h) is 150.8 pmol/mg protein/min; in assay [3] (24 h) it was 230.3 pmol/mg protein/min. The “GUS activity Fold-change relative to T0 (uninduced)” value in assay [2] (2 h) was 2.2 fold; in assay [2] (4 h) it was 6.6 fold; in assay [2] (24 h), 36.7 fold; in assay [3] (2 h), 1.4 fold; in assay [3] (4 h), 3.0 fold; in assay [3] (8 h) it was 7.8 fold.
